In patent US8008291B2 (Mimetica Pty Ltd, priority 2008, dated 2011):

Target: T1, human MC5R (hMC5R) (Homo sapiens, UniProt P33032)
T1 construct: purchased Perkin Elmer RBXMC5M400UA
Assay: Human MC5R radioligand binding assay (membranes, [125I] NDP-MSH displacement)
Conditions: hMC5R binding; tested as trifluoroacetate or hydrochloride salts, or free bases; read-out: MC5R radioligand IC50
Procedure, shortened: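 Frozen human MC5R membranes incubated with test compound and in-house iodogen-labeled, HPLC-purified [125I]NDP-MSH for 1 hr at 37° C. Binding measured as displacement of the radioligand.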

T1 sequence (P33032 whole entry): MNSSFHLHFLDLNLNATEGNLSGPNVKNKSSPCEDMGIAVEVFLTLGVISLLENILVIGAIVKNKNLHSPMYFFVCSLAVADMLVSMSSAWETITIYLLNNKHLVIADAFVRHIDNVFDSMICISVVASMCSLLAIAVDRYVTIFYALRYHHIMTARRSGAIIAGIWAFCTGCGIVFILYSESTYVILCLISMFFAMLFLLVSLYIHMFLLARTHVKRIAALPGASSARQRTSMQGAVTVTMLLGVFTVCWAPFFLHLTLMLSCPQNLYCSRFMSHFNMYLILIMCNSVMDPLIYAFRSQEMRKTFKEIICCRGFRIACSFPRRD

SMILES | IC50 [nM]
CC[C@H](CN1CC[C@@H](CNC(=O)c2ccc(Cl)c(Cl)c2)N[C@@H](CCNCc2ccccc2)C1=O)c1ccccc1 [Compound 429, N-(((3S,5S)-3-(2-(benzylamino)ethyl)-2-oxo-1-((S)-2-phenylbutyl)-1,4-diazepan-5-yl)methyl)-3,4-dichlorobenzamide] | < 100
O=C(NC[C@@H]1CCN(Cc2ccc(Cl)cc2Cl)C(=O)[C@H](CCN2CCCCC2)N1)c1ccc(Cl)c(Cl)c1 [Compound 503, 3,4-dichloro-N-(((3S,5S)-1-(2,4-dichlorobenzyl)-2-oxo-3-(2-(piperidin-1-yl)ethyl)-1,4-diazepan-5-yl)methyl)benzamide] | < 1000
CC[C@H](CN1CC[C@@H](CNC(=O)c2ccccc2-c2ccc(Cl)cc2)N[C@@H](CCN2CCCCC2)C1=O)c1ccccc1 [Compound 497, 4′-chloro-N-(((3S,5S)-2-oxo-1-((S)-2-phenylbutyl)-3-(2-(piperidin-1-yl)ethyl)-1,4-diazepan-5-yl)methyl)biphenyl-2-carboxamide] | < 100
CCC(C)(CC)CN1CC[C@@H](CNC(=O)c2ccc(Cl)c(Cl)c2)N[C@@H](CCN2CCCCC2)C1=O [Compound 521, 3,4-dichloro-N-(((3S,5S)-1-(2-ethyl-2-methylbutyl)-2-oxo-3-(2-(piperidin-1-yl)ethyl)-1,4-diazepan-5-yl)methyl)benzamide] | < 100
CC[C@H](CN1CC[C@@H](CNC(=O)c2ccc3cc(Cl)ccc3c2)N[C@@H](CN2CCCCC2)C1=O)c1ccccc1 [Compound 415, 6-chloro-N-(((3S,5S)-2-oxo-1-((S)-2-phenylbutyl)-3-(piperidin-1-ylmethyl)-1,4-diazepan-5-yl)methyl)-2-naphthamide] | < 100
CC[C@H](CN1CC[C@@H](CNC(=O)c2ccc(Cl)c(Cl)c2)N[C@@H](CCN2C(=O)CCC2=O)C1=O)c1ccccc1 [Compound 489, 3,4-dichloro-N-(((3S,5S)-3-(2-(2,5-dioxopyrrolidin-1-yl)ethyl)-2-oxo-1-((S)-2-phenylbutyl)-1,4-diazepan-5-yl)methyl)benzamide] | < 10000
NCCCC[C@@H]1N[C@H](CNC(=O)Cc2c[nH]c3ccccc23)CCN(Cc2cccc3ccccc23)C1=O [Compound 120, N-(((3S,5S)-3-(4-aminobutyl)-1-(naphthalen-1-ylmethyl)-2-oxo-1,4-diazepan-5-yl)methyl)-2-(1H-indol-3-yl)acetamide] | < 10000
CC[C@H](CN1CC[C@@H](CNC(=O)c2ccc(Cl)cc2Cl)N[C@@H](CCN2CCCCC2)C1=O)c1ccccc1 [Compound 534, 2,4-dichloro-N-(((3S,5S)-2-oxo-1-((S)-2-phenylbutyl)-3-(2-(piperidin-1-yl)ethyl)-1,4-diazepan-5-yl)methyl)benzamide] | < 10

More lines, now with the values ahead:

IC50 [nM] | SMILES
< 10000 | COc1cc(CN2CC[C@@H](CNC(=O)c3ccc4ccccc4c3)N[C@@H](CCCN)C2=O)cc(OC)c1 [Compound 316, N-(((3S,5S)-3-(3-aminopropyl)-1-(3,5-dimethoxybenzyl)-2-oxo-1,4-diazepan-5-yl)methyl)-2-naphthamide]
< 10000 | CC1CCCC(C)C1CN1CC[C@@H](CNC(=O)c2ccc3ccccc3c2)N[C@@H](CCCN)C1=O (stereo partly drawn) [Compound 384, N-(((3S,5S)-3-(3-aminopropyl)-1-((2,6-dimethylcyclohexyl)methyl)-2-oxo-1,4-diazepan-5-yl)methyl)-2-naphthamide]
< 1000 | CC[C@H](CN1CC[C@@H](CNC(=O)c2ccc3cc(Cl)ccc3c2)N[C@@H](CCN(C(C)=O)C(C)C)C1=O)c1ccccc1 [Compound 498, 6-chloro-N-(((3S,5S)-3-(2-(N-isopropylacetamido)ethyl)-2-oxo-1-((S)-2-phenylbutyl)-1,4-diazepan-5-yl)methyl)-2-naphthamide]
< 10000 | NCCC[C@@H]1N[C@H](CNC(=O)c2ccc3ccccc3c2)CCN(Cc2ccc(Cl)cc2)C1=O [Compound 323, N-(((3S,5S)-3-(3-aminopropyl)-1-(4-chlorobenzyl)-2-oxo-1,4-diazepan-5-yl)methyl)-2-naphthamide]
